The test system of this experiment is primary neuronal cultures subjected to OGD. The experiment can be described thus: Lipid peroxidation (MDA) in primary neuronal cultures after OGD. Format: cell-based, rat. Conditions: 4 h recovery after 4 h OGD; significant at 100 μM. The protocol:
Lipid peroxidation. Lipid peroxidation was evaluated by the detection of end products such as malondialdehyde (MDA) as a result of oxidative attack to polyunsaturated lipids. Lipid peroxidation was determined by the reaction of MDA with thiobarbituric acid (TBA) to form a colorimetric/fluorometric product, proportional to the MDA present. After recovery period for 4 h, cells (1.5×10^6) were lysed and centrifuged according to the supplier instructions (Sigma, MAK085), and then the thiobarbituric acid was added to the supernatant and mixed in a vortex. The samples were incubated at 95° C. for 60 min, cooled to room temperature and then n-butanol and 5M NaCl were added in a reaction mixture 8:3:1 (v/v) sample:n-butanol:NaCl. After mixed in a vortex, the samples were centrifuged, the n-butanol layer was taken and evaporated, the MDA-TBA adducts were dissolve in water and the absorbance was measured at 540 nm.
Exposure of neuronal cultures to 4 h OGD induced significant ROS generation after 2 h recovery in normoxic and normoglycemic conditions (R2 h) (210%, p<0.005 compared with 100% control) (FIG. 5A). […] ROS generation may induce lipid peroxidation and cell membrane damage. […]

Take `COc1ccc2nc(Cl)c(/C=[N+](\[O-])C(C)(C)C)cc2c1` [Compound 23, (Z)—N-tert-Butyl-1-(2-chloro-6-methoxyquinolin-3-yl)methanimine oxide]: the lipid peroxidation entry was “significantly decreased compared to R4 h value”.

Values taken from patent US12102631B2, “Quinolylnitrones for the treatment and prevention of a cerebral stroke or ischaemia” (ISQUAEMIA BIOTECH, S.L., priority 2018, dated 2024).
